# Laboratory results from patent US20040121307A1, “Early detection of cellular differentiation using optophoresis” (Genoptix, Inc, priority 2002, published 2004).
# “And” between values parts separate entries of the source, which are not always exact repeats. Equal values may be shown once.
# Columns and labels:
# Type in all cases: cell-based
# U937 cells [1] = assay: Experiment 3: PMA inhibition by bisindolymaleimide, escape velocity; conditions: 10 ng/ml PMA only, four hours
# From the text: The objective of this experiment was to test the effect of bisindolymaleimide on cells exposed to PMA. Bisindolymaleimide is a Protein Kinase C inhibitor and should block the effect of PMA on U937 cells and their escape velocities. As shown in this and prior experiments, exposure of U937 cells to PMA results in an increase in the escape velocity of the cells. Therefore, it is anticipated that addition of bisindolymaleimide will reduce or eliminate the increase in escape velocity caused by PMA. This has in fact been observed in the data shown below.
# Bisindolymaleimide was tested at two concentrations: 200 ng/ml and 50 ng/ml. Samples not treated with bisindolymaleimide received an equivalent amount of the carrier, MeOH, as a control. […] The concentration of PMA tested was 10 ng/ml. Samples not receiving PMA received DMSO.
# Once the flasks were prepared, they were incubated at 37° C. 5% CO2 for four hours. At the four hour timepoint, 300 μl of cells were removed from each flask and pelleted at 5000 rpm for 5 minutes. The cells were then resuspended in 6 ml PBS/1% BSA and 60 μl trypan blue.
# U937 cells [2] = assay: Experiment 13: quantitative determination of PKC activation, escape velocity dose response; conditions: for escape velocity, Average: five hours
# Procedure: Optophoretic analysis was used to develop a full dose response curve for U937 cells treated with PMA. U937 cells were incubated with varying amounts of PMA dissolved in DMSO. The following concentrations of PMA were tested: 0.156 ng/ml, 0.312 ng/ml, 0.625 ng/ml, 1.25 ng/ml, 2.5 ng/ml, 5 ng/ml, and no PMA (control). The cells were incubated with the PMA solutions (or simply DMSO in the case of the control) for five hours. At the end of the incubation period, the cells were centrifuged down for five minutes at 5000 rpm. The supernatent was then removed and the pellet resuspended in 1 ml PBS/1% BSA buffer plus 1:10 trypan blue. The cells were then loaded onto a cover slip containing agarose that was spin-coated onto the surface thereof. Escape velocity measurements were then taken using a 100 mW laser having a beam diameter of 28 pixels. Table 9 reproduced below sets forth the measured escape velocities (μm/sec) for each of the various PMA concentrations.
# The method described above may be used to quantitatively determine the level of PKC activation in cells in response to exposure to PKC activating compound using a moving optical gradient. The method includes the steps of first providing a series of cell samples and exposing the series of cell samples to different concentrations of the PKC activating compound. After a period of incubation from about one to several hours, the cells and the optical gradient are moved relative to each other so as to cause displacement of at least some of the cells. Next, the displacement of at least a portion of the displaced cells is measured for each of the different concentrations. […] From the dose response curve, one is able to calculate one or more numerical values that correlate to PKC potency and/or efficacy. For example, the dose response curve can be used to calculate the EC50, Hill slope, or plateau value relative to a standard compound.
# HL-60 cells = assay: Cellular differentiation of HL-60, escape velocity
# From the text: HL-60 is a promyelocytic leukemia cell line that retains the capacity to undergo terminal differentiation and serves as a model system to study myeloid pathways of cellular differentiation. It is known that treatment of HL-60 cells with phorbol 12-myristate 13-acetate (PMA) causes the cells to differentiate into monocytes/macrophages. In addition, it is also known that treatment of HL-60 cells with dimethylsulfoxide (DMSO) causes these same cells to undergo granulocytic differentiation.
# Initial tests were performed using HL-60 cells treated with PMA. HL-60 cells were seeded at about 1-3×10^6 cells per well in six well plates. The cells were treated with 200 ng/ml PMA while the control cells were treated with ethanol (EtOH) vehicle for four hours at 37° C. After incubation for four hours the treated cells were washed with PBS and re-fed with growth media. The treated HL-60 cells were then allowed to differentiate for 72 hours in normal growth media. After the 72 hour period, the untreated control cells were collected by centrifugation, washed with PBS and pelleted for resuspension at 1.5×10^6 cells/ml in PBS/1% BSA. Treated cells were trypsinized and collected by centrifugation then washed in PBS and pelleted for resuspension at 1×10^6 cells/ml in PBS/1% BSA. The cells were the subjected to Optophoretic analysis by measuring the escape velocities of the treated and control cells. Table 23 shown below illustrates the measured escape velocities of the undifferentiated and differentiated cells at 72 hours post treatment.
# U937 cells [3] = assay: Experiment 1: time course dependence of PMA activation, escape velocity
# Procedure: The objective of this experiment is to compare the escape velocities of U937 cells that have been treated with the phorbol ester, phorbol 12 myristate 13-acetate (PMA), to the escape velocity of untreated U937 cells. PMA activates the Protein Kinase C pathway and may cause the cells to go into rapid cell differentiation, which may be indicated by a shift in escape velocity. […] At the end of the activation period, the cells were centrifuged for 4 minutes at 10,000 rpm. The supernatant was then removed and the pellet resuspended in 1 ml PBS/1% BSA buffer. The cells were then centrifuged again and resuspended in buffer. The escape velocity and the cell size of cells from each tube were then calculated.
# The time dependent effect of PMA was clearly present as can been seen in the shift of escape velocity to higher speeds over greater time periods.
smiles,measurement,setting,value
"CCCCCCCCCCCCCC(=O)O[C@@H]1[C@@H](C)[C@@]2(O)[C@@H](C=C(CO)C[C@]3(O)C(=O)C(C)=C[C@@H]23)[C@@H]2C(C)(C)[C@]12OC(C)=O [PMA, phorbol 12 myristate 13-acetate]",average escape velocity,U937 cells [1],15.4 μm/sec
same,"escape velocity, Average",U937 cells [2]; 1.25 ng/ml PMA,17.0 μm/sec
same,"escape velocity, Average",U937 cells [2]; 2.5 ng/ml PMA,17.0 μm/sec
same,"escape velocity, Average",U937 cells [2]; 5 ng/ml PMA,17.3 μm/sec
same,"escape velocity, Average",U937 cells [2]; .156 ng/ml PMA,15.8 μm/sec
same,"escape velocity, Average",U937 cells [2]; .312 ng/ml PMA,16.0 μm/sec
same,"escape velocity, Average",U937 cells [2]; .625 ng/ml PMA,16.6 μm/sec
same,EC50,"U937 cells [2]; Homo sapiens, U-937, 5 h, U937 cells, five hours (FIG. 53), read-out: EC50 value of the PMA dose response curve (escape velocity)",~0.625 ng/mL
same,"escape velocity, Average","HL-60 cells; HL-60 + PMA at 72 hours (differentiated), 200 ng/ml PMA for four hours",14.0 μm/sec
same,"Escape Velocity, individual cell","HL-60 cells; HL-60 + PMA at 72 hours (differentiated), 200 ng/ml PMA for four hours, Cell No. 1 to 20",14.0 μm/sec (3×) and 12.5 μm/sec (3×) and 16.5 μm/sec and 14.5 μm/sec (3×) and 13.0 μm/sec (2×) and 13.5 μm/sec (2×) and 15.5 μm/sec (2×) and 15.0 μm/sec (2×) and 16.0 μm/sec and 11.0 μm/sec
same,increase in measured escape velocity as compared to the control cells,"HL-60 cells; HL-60 + PMA at 72 hours, on average",about 2 μm/sec
same,distribution of escape velocities,"U937 cells [3]; 0.01 μg/ml PMA, 6 and 9 hours post treatment (FIG. 31)",clear trend toward higher escape velocities over time
same,"escape velocity, Average",U937 cells [3]; 1 hour of PMA activation,15.3 μm/sec
same,"escape velocity, Average",U937 cells [3]; 6 hours of PMA activation,28.0 μm/sec
